{
  "source": "patent US9539303B2",
  "about": "“Treatment of Ras-expressing tumors” (Celgene Corporation, priority 2006, dated 2017)",
  "key": {"[1]": {"experiment": "Animal weight and drug toxicity, PANC-1 study", "from_the_text": "(§1) Model Information—Female nude mice (nu/nu) between 5 and 6 weeks of age weighing approximately 20 grams were obtained from Harlan, Inc. (Madison, Wis.). PANC-1, obtained from the ATCC, is a pancreas tumor cell line originating from a person^(1-2). BxPC-3, obtained from the American Type Culture Collection (ATCC), is a pancreas tumor cell line originating from a person^(3-4). PANC-1 Study: Animals were implanted subcutaneously (SC) by trocar with fragments of PANC-1 harvested from SC growing tumors in nude mice hosts. When tumors grew to approximately 135 cubic millimeters (mm^3) in size (17 days following implantation, animals were pair-matched by tumor size into treatment and control groups; each treatment group contained nine mice. BxPC-3 Study: Animals were implanted subcutaneously (SC) by trocar with fragments of BxPC-3 harvested from SC growing tumors in nude mice hosts. When tumors grew to approximately 85 cubic millimeters (mm^3) in size (19 days following implantation), animals were pair-matched by tumor size into treatment and control groups; each treatment group contained nine mice. Animals in both studies were ear-tagged and followed individually throughout the experiment.\n(§2) Study Design and Dosing—Initial doses were administered on Day 1 following pair-matching; both experiments were carried out as tumor growth inhibition (TGI) studies. Animals were dosed intravenously (IV) via tail vein with FK228 once every four days for three treatments (Q4Dx3) or by intraperitoneal (IP) injection with gemcitabine once every three days for four treatments (Q3Dx4), either alone or in combination, at the doses listed below (Table 1). To serve as a negative control, FK228 vehicle (2% ethanol, 8% propylene glycol, 90% 0.9% saline) was injected on a Q4Dx3 schedule.\n(§3) Animal Weights—Individual and group mean weights±SD and percent weight change through Day 25 (PANC-1) or Day 29 (BxPC-3) were recorded twice weekly until study completion beginning Day 1. Final group mean weights±SD and group nadir values are reported; weight data from individual animals experiencing technical or drug-related deaths was censored from final group calculations.\n(§4) Moribundity/Mortality—Animals were observed twice weekly for general moribundity and daily for mortality. Animal deaths were assessed as drug-related or technical based on factors including gross observation and weight loss; reported animal death information includes type, number, and day of death for each group."}, "[2]": {"experiment": "Animal weight and drug toxicity, BxPC-3 study", "from_the_text": "as §1, §2, §3, §4"}, "[3]": {"conditions": "FK228 2.5 mg/kg IV Q4Dx3, 2.5 mg/kg"}, "[4]": {"conditions": "FK228 5 mg/kg IV Q4Dx3, 5 mg/kg"}},
  "note": "Where “and” joins values, the source holds several entries; their conditions need not be identical. Equal values may be shown once.",
  "data": [
    {"smiles": "C/C=C1\\NC(=O)[C@H]2CSSCC/C=C/[C@H](CC(=O)N[C@H](C(C)C)C(=O)N2)OC(=O)[C@H](C(C)C)NC1=O", "note": "[FK228, romidepsin]", "values": [
      {"measurement": "Final weight data % change", "setting": "[1]; Day 25, FK228 2.5 mg/kg IV Q4Dx3", "result": "+8%"},
      {"measurement": "Final weight data mean ± SD", "setting": "[1]; Day 25, FK228 2.5 mg/kg IV Q4Dx3, 2.5 mg/kg", "result": "23±2", "unit": "G"},
      {"measurement": "Final weight data % change", "setting": "[1]; Day 25, FK228 5 mg/kg IV Q4Dx3", "result": "+9%"},
      {"measurement": "Final weight data mean ± SD", "setting": "[1]; Day 25, FK228 5 mg/kg IV Q4Dx3, 5 mg/kg", "result": "25±2", "unit": "G"},
      {"measurement": "Weight nadir % change", "setting": "[1]; FK228 2.5 mg/kg IV Q4Dx3", "result": "−9", "unit": "%"},
      {"measurement": "Weight nadir day", "setting": "[1]; FK228 2.5 mg/kg IV Q4Dx3", "result": 11},
      {"measurement": "Drug deaths total", "setting": "[1]; [3]", "result": "0/9 and 0"},
      {"measurement": "Weight nadir % change", "setting": "[1]; FK228 5 mg/kg IV Q4Dx3", "result": "−12", "unit": "%"},
      {"measurement": "Weight nadir day", "setting": "[1]; FK228 5 mg/kg IV Q4Dx3", "result": 11},
      {"measurement": "Drug deaths total", "setting": "[1]; [4]", "result": "0/9 and 0"},
      {"measurement": "Final weight data % change", "setting": "[2]; Day 29, FK228 2.5 mg/kg IV Q4Dx3", "result": "+10%"},
      {"measurement": "Final weight data mean ± SD", "setting": "[2]; Day 29, FK228 2.5 mg/kg IV Q4Dx3, 2.5 mg/kg", "result": "25±2", "unit": "G"},
      {"measurement": "Final weight data % change", "setting": "[2]; Day 29, FK228 5 mg/kg IV Q4Dx3", "result": "+7%"},
      {"measurement": "Final weight data mean ± SD", "setting": "[2]; Day 29, FK228 5 mg/kg IV Q4Dx3, 5 mg/kg", "result": "24±1", "unit": "G"},
      {"measurement": "Weight nadir % change", "setting": "[2]; FK228 2.5 mg/kg IV Q4Dx3", "result": "−5", "unit": "%"},
      {"measurement": "Weight nadir day", "setting": "[2]; FK228 2.5 mg/kg IV Q4Dx3", "result": 11},
      {"measurement": "Drug deaths total", "setting": "[2]; [3]", "result": "0/9 and 0"},
      {"measurement": "Weight nadir % change", "setting": "[2]; FK228 5 mg/kg IV Q4Dx3", "result": "−15", "unit": "%"},
      {"measurement": "Weight nadir day", "setting": "[2]; FK228 5 mg/kg IV Q4Dx3", "result": 11},
      {"measurement": "Drug deaths total", "setting": "[2]; [4]", "result": "0/9 and 0"}
    ]}
  ]
}
